Among the test systems are 786-0; A549; BT-549; COLO 205; HCT-116; HCT-15; HT-29; KM12; LOX IMVI; MDA-MB-435; MDA-N; MOLT-4; NCI-H23; NCI-H460; NCI-H522; OVCAR-8; SF-268; SF-295; SK-MEL-28; T47D.
Assay in all cases: NCI tumour cell line growth inhibition, 48 h

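Step 1: Grow cells in 96-well plates. Step 2: Expose to compound for 48 hours at 5 concentrations. Step 3: Interpolate endpoints linearly; if unreached, use highest concentration. The concentration for 50% growth inhibition is given as GI50.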 Calls of active or inactive are those of the source. Rule as the data show it: active = GI50 up to about 1.1 µM and inactive = higher. Where only a bound is given, the exact number is not on record here.

For the molecule `CCN(CC)c1ccc2cc(-c3nnc(-c4ccccc4)o3)c(=O)oc2c1`, the GI50 in the experiment with 786-0 was 17 µM (inactive); with A549, 16.4 µM (inactive); in the experiment on BT-549 it was > 57.1 µM (inactive); in the experiment on COLO 205, 20.3 µM (inactive); in the experiment on HCT-116, 19.9 µM (inactive); in the experiment with HCT-15, 6.35 µM. For the same molecule, the GI50 in the experiment with HT-29 is 25.4 µM (inactive); with KM12, 46.7 µM (inactive); with LOX IMVI, 29.6 µM (inactive); in the experiment with MDA-MB-435 it was > 48.6 µM (inactive); in the experiment with MDA-N, 48.5 µM (inactive); in the experiment on MOLT-4 it was 0.413 µM (active). In addition, the GI50 with NCI-H23 is 56.9 µM (inactive); with NCI-H460, 4.93 µM (inactive); in the experiment with NCI-H522, 28.8 µM (inactive); with OVCAR-8 it was 28.1 µM (inactive); with SF-268 it was 28 µM (inactive); in the experiment on SF-295, 17.3 µM (inactive). Further, the GI50 was > 85.3 µM (inactive) in the experiment on SK-MEL-28 and 23.4 µM (inactive) in the experiment on T47D.

Turning to `O=[N+]([O-])c1ccc(NS(=O)(=O)C(F)(F)F)cc1`, the GI50 was > 100 µM (inactive) with 786-0; > 100 µM (inactive) in the experiment with A549; > 100 µM (inactive) in the experiment with BT-549; > 100 µM (inactive) in the experiment with COLO 205; > 100 µM (inactive) with HCT-116; greater than 100 µM with HCT-15. The GI50 with HT-29, in the experiment on KM12, in the experiment on LOX IMVI, in the experiment with MDA-MB-435, in the experiment with MDA-N and in the experiment with MOLT-4 was > 100 µM (inactive) throughout. The GI50 in the experiment on NCI-H23 is > 100 µM (inactive); in the experiment with NCI-H460, > 100 µM (inactive); in the experiment with NCI-H522, 22.1 µM (inactive); in the experiment with OVCAR-8, > 100 µM (inactive); in the experiment with SF-268, > 100 µM (inactive); in the experiment with SF-295 it was > 100 µM (inactive). The GI50 in the experiment on SK-MEL-28 and with T47D was > 100 µM (inactive) each time.

Consider `O=C(O)c1cc2c(cc1CC(Cc1ccc3c(c1)CCC3)C(=O)O)CCC2` (stereo not given), for which the GI50 was > 100 µM (inactive) with 786-0; > 100 µM (inactive) in the experiment with A549; > 100 µM (inactive) in the experiment on BT-549; > 100 µM (inactive) with COLO 205; > 100 µM (inactive) in the experiment on HCT-116; greater than 100 µM with HCT-15. The GI50 in the experiment with HT-29, in the experiment with KM12, in the experiment on LOX IMVI, with MDA-MB-435, in the experiment with MDA-N and in the experiment on MOLT-4 was > 100 µM (inactive) throughout. Besides, the GI50 in the experiment with NCI-H23, in the experiment with NCI-H460, in the experiment on NCI-H522, with OVCAR-8, with SF-268 and with SF-295 was > 100 µM (inactive) throughout. The GI50 with SK-MEL-28 and in the experiment on T47D was > 100 µM (inactive) each time.

For `COc1c2c(cc3c1C(O)N1CC[C@]34[C@H]3O[C@H]3[C@H](OC)C[C@@H]14)OCO2` (stereo not given in full), the GI50 is > 100 µM (inactive) in the experiment on 786-0; > 100 µM (inactive) in the experiment on A549; > 100 µM (inactive) with BT-549; 97.9 µM (inactive) with COLO 205; 75 µM (inactive) with HCT-116; 67.3 µM in the experiment on HCT-15. Further, the GI50 in the experiment with HT-29 is 42.8 µM (inactive); with KM12 it was 73.1 µM (inactive); in the experiment with LOX IMVI, 71.4 µM (inactive); in the experiment with MDA-MB-435 it was 31.6 µM (inactive); with MDA-N it was 25.3 µM (inactive); in the experiment on MOLT-4, > 100 µM (inactive). For the same molecule, the GI50 in the experiment with NCI-H23 was > 100 µM (inactive); in the experiment on NCI-H460 it was 72.3 µM (inactive); in the experiment on NCI-H522, 31.9 µM (inactive); with OVCAR-8, > 100 µM (inactive); in the experiment with SF-268, > 100 µM (inactive); in the experiment with SF-295 it was 27.2 µM (inactive). In addition, the GI50 in the experiment on SK-MEL-28 and in the experiment with T47D was > 100 µM (inactive) throughout.

Turning to `C=C1C(=O)O[C@H]2[C@H]3O[C@@H](C[C@@H]12)[C@](C)(O)CCCC(C)=CCC[C@H]3C`, the GI50 in the experiment on 786-0 was 54.3 µM (inactive); in the experiment with A549 it was 16.8 µM (inactive); in the experiment with BT-549, 0.457 µM (active); with COLO 205, 3.38 µM (inactive); with HCT-116 it was 13.6 µM (inactive); in the experiment with HCT-15, 7.35 µM. For the same molecule, the GI50 with HT-29 is 13.5 µM (inactive); in the experiment on KM12, 14.1 µM (inactive); in the experiment with LOX IMVI, 14.3 µM (inactive); in the experiment with MDA-MB-435 it was 3.86 µM (inactive); in the experiment with MDA-N, 16.1 µM (inactive); in the experiment with MOLT-4, 2.08 µM (inactive). The GI50 is 14.5 µM (inactive) in the experiment on NCI-H23; 5.18 µM (inactive) with NCI-H460; 4.36 µM (inactive) in the experiment on NCI-H522; 5.97 µM (inactive) in the experiment with OVCAR-8; 8.04 µM (inactive) with SF-268; 16.5 µM (inactive) in the experiment with SF-295. Also, the GI50 with SK-MEL-28 is 11.5 µM (inactive); in the experiment with T47D, 19.1 µM (inactive).

For `COC(=O)Nc1nc2cc(S(=O)(=O)NC(CC(C)C)C(=O)OC)ccc2[nH]1` (stereo not given), the GI50 with 786-0 is 3.14 µM (inactive); with A549, 7.29 µM (inactive); in the experiment with BT-549 it was 35.7 µM (inactive); with COLO 205, 3.22 µM (inactive); in the experiment with HCT-116 it was 2.32 µM (inactive); in the experiment with HCT-15, 2.81 µM. The GI50 with HT-29 is 2.81 µM (inactive); in the experiment on KM12, 2.19 µM (inactive); with LOX IMVI it was 3.63 µM (inactive); with MDA-MB-435 it was 0.396 µM (active); in the experiment with MDA-N, 0.414 µM (active); in the experiment with MOLT-4, 3.67 µM (inactive). For the same molecule, the GI50 is 3.25 µM (inactive) in the experiment with NCI-H23; 4.17 µM (inactive) in the experiment on NCI-H460; 0.197 µM (active) with NCI-H522; 3.96 µM (inactive) with OVCAR-8; 10.8 µM (inactive) in the experiment on SF-268; 1.83 µM (inactive) with SF-295. Besides, the GI50 in the experiment on SK-MEL-28 is 4.35 µM (inactive); with T47D, 4.19 µM (inactive).

Consider `O=C1C(Nc2ccccc2)=CC2=NCCc3n[nH]c1c32`, for which the GI50 in the experiment on 786-0 is 38.5 µM (inactive); in the experiment with A549, 84.9 µM (inactive); in the experiment with BT-549 it was 40.8 µM (inactive); with COLO 205, 33.1 µM (inactive); in the experiment on HCT-116 it was 18 µM (inactive); in the experiment on HCT-15, 19.8 µM. Besides, the GI50 was 37 µM (inactive) with HT-29; 20.4 µM (inactive) with KM12; 13.9 µM (inactive) in the experiment with LOX IMVI; 17.2 µM (inactive) in the experiment on MDA-MB-435; 16.3 µM (inactive) in the experiment on MDA-N; 30.1 µM (inactive) in the experiment with MOLT-4. Besides, the GI50 in the experiment with NCI-H23 was 33.9 µM (inactive); with NCI-H460 it was 35.9 µM (inactive); in the experiment with NCI-H522, 32.5 µM (inactive); in the experiment on OVCAR-8, 21 µM (inactive); with SF-268, 65.2 µM (inactive); in the experiment with SF-295, 38.6 µM (inactive). The results for the GI50 in the experiment on SK-MEL-28 and in the experiment on T47D were 68.1 µM (inactive) and 34.4 µM (inactive), respectively.

Regarding `COc1ccc(Nc2nc3ccccc3nc2C(=O)O)cc1`, the GI50 with 786-0 was 49.1 µM (inactive); in the experiment on A549, > 100 µM (inactive); in the experiment with BT-549, > 100 µM (inactive); in the experiment with COLO 205 it was 37.7 µM (inactive); in the experiment with HCT-116, 58.6 µM (inactive); with HCT-15 it was 36.1 µM. The GI50 in the experiment on HT-29 is > 100 µM (inactive); in the experiment with KM12, 26.2 µM (inactive); in the experiment on LOX IMVI it was 60.1 µM (inactive); in the experiment with MDA-MB-435 it was > 100 µM (inactive); in the experiment with MDA-N, 92.9 µM (inactive); with MOLT-4, 84.1 µM (inactive). The GI50 with NCI-H23 is 66.7 µM (inactive); in the experiment on NCI-H460, 23.6 µM (inactive); in the experiment on NCI-H522, 92 µM (inactive); in the experiment with OVCAR-8 it was 71.3 µM (inactive); in the experiment with SF-268, 61.1 µM (inactive); in the experiment with SF-295, 61.7 µM (inactive). The results for the GI50 in the experiment with SK-MEL-28 and in the experiment on T47D were 68.4 µM (inactive) and 53.6 µM (inactive), respectively.

For the molecule `COc1ccc(Oc2ccc3cc4c(cc3c2O)OCO4)c2cc(C)oc12`, the GI50 was 35.8 µM (inactive) in the experiment with 786-0; 30.1 µM (inactive) in the experiment on A549; 22.5 µM (inactive) in the experiment with BT-549; 25.5 µM (inactive) in the experiment on COLO 205; 26.4 µM (inactive) with HCT-116; 22.1 µM in the experiment on HCT-15. Besides, the GI50 is 23.2 µM (inactive) with HT-29; 28.3 µM (inactive) in the experiment on KM12; 19.3 µM (inactive) in the experiment on LOX IMVI; 22.3 µM (inactive) in the experiment on MDA-MB-435; 29.6 µM (inactive) in the experiment with MDA-N; 14.3 µM (inactive) in the experiment on MOLT-4. Further, the GI50 in the experiment with NCI-H23 was 26.4 µM (inactive); with NCI-H460, 21.5 µM (inactive); in the experiment with NCI-H522, 20.9 µM (inactive); with OVCAR-8, 37.5 µM (inactive); in the experiment on SF-268, 36 µM (inactive); in the experiment on SF-295 it was 33.5 µM (inactive). In addition, the values for the GI50 in the experiment on SK-MEL-28 and in the experiment on T47D were 47.5 µM (inactive) and 12.3 µM (inactive), respectively.

As for `O=C(O)c1ccccc1CC1Cc2ccc3c(c2C1=O)CCC3` (stereo not given), the GI50 in the experiment with 786-0 is > 100 µM (inactive); with A549 it was > 100 µM (inactive); in the experiment on BT-549 it was > 100 µM (inactive); in the experiment with COLO 205, > 100 µM (inactive); with HCT-116, > 100 µM (inactive); in the experiment on HCT-15, greater than 100 µM. Also, the GI50 in the experiment on HT-29, with KM12, with LOX IMVI, in the experiment with MDA-MB-435, in the experiment on MDA-N and in the experiment with MOLT-4 was > 100 µM (inactive) throughout. For the same molecule, the GI50 with NCI-H23, in the experiment with NCI-H460, with NCI-H522, in the experiment with OVCAR-8, with SF-268 and in the experiment on SF-295 was > 100 µM (inactive) in each case. Moreover, the GI50 in the experiment on SK-MEL-28 and with T47D was > 100 µM (inactive) throughout.

The values above are taken from ChEMBL document CHEMBL1201862, “PubChem BioAssay data set” (2004).
